{"source": "patent US4361582A", "about": "“Aldose reductase inhibition by γ-oxo-8-fluoranthenebutanoic acid” (Ayerst, McKenna & Harrison Inc., priority 1981, dated 1982)", "key": {"lens aldose reductase": {"target": "lens aldose reductase (Bos taurus, UniProt P16116)", "experiment": "in vitro aldose reductase inhibition test (modified Hayman and Kinoshita procedure)", "assay_type": "biochemical, bovine", "details": "statement in words", "description": "In the present case the procedure of Hayman and Kinoshita is modified in that the final chromatography step is omitted in the preparation of the enzyme from bovine lens."}, "[1]": {"details": "Acheson et al., Gastroenterology, 37, 735 (1959); cited from earlier work"}}, "data": [{"smiles": "O=C(O)CCC(=O)c1ccc2c(c1)-c1cccc3cccc-2c13", "note": "[Florantyrone, γ-Oxo-8-fluoranthenebutanoic acid]", "values": [{"measurement": "inhibitor of lens aldose reductase", "setting": "lens aldose reductase", "value": "potent inhibitor of lens aldose reductase"}, {"measurement": "hydrocholeretic activity", "setting": "[1]", "value": "has hydrocholeretic activity"}]}]}
